assay: method code G-GLC, from Larsen, B. R., Skejo-Andreasen, H., & Pérez, A. P. (1992). Octanol-water partition coefficients of 39 polychlorinated biphenyls in an Askarel mixture. Fresenius Envir. Bull. I (Supplementum), S13-18.

First: Clc1ccc(-c2cccc(Cl)c2Cl)cc1
Second: Clc1ccc(-c2ccc(Cl)c(Cl)c2Cl)cc1
The logP of the first is lower: 5.63 for the first, 5.95 for the second.

`Clc1cc(Cl)c(-c2cccc(Cl)c2Cl)cc1Cl` and `Clc1ccc(-c2c(Cl)ccc(Cl)c2Cl)cc1Cl` are within 0.2 log units of each other in logP: 6.28 for the first, 6.22 for the second.

Compared with `Clc1cc(Cl)c(-c2c(Cl)ccc(Cl)c2Cl)c(Cl)c1Cl`, `Clc1ccc(Cl)c(-c2c(Cl)c(Cl)cc(Cl)c2Cl)c1` is lower in logP: 6.76 for the first, 6.45 for the second.

`Clc1ccc(Cl)c(-c2c(Cl)ccc(Cl)c2Cl)c1` and `Clc1ccc(Cl)c(-c2ccc(Cl)c(Cl)c2)c1` are within 0.2 log units of each other in logP: 6.08 for the first, 5.99 for the second.

Going from `Clc1ccc(-c2ccc(Cl)c(Cl)c2Cl)c(Cl)c1Cl` to `Clc1ccc(Cl)c(-c2cc(Cl)ccc2Cl)c1`, the logP falls from 6.62 to 5.81.

— the SangsterLogP compilation
